The values below come from US20070043114A1, “Nerve regeneration promoters” (priority 2003, published 2007).

Data set [1] deals with astrocytes derived from cerebral cortex of rats. Description: differentiation test of astrocytes derived from cerebral cortex of rats. It is filed as cell-based, rats of Wistar strain. The following applies: for positive cell numbers per visual field stained by an anti-βIII-tubulin antibody: differentiated seven days, no compound-added group 93±10.9. The method, then: Cerebrum was excised from newly-born rats of Wistar strain and, after removal of meninx under a stereoscopic microscope, it was ground with a frost part of a slide glass with frost in an ice-cooled DMEM medium to prepare a suspension. Centrifugal separation was conducted at 100×g for 3 minutes and the precipitate was suspended in a 10% bovine fetal serum-DMEM medium and sown in a 75-cm^2 flask. After two days from the start of culturing, cell purification was conducted. On the 19th day from the start of the culturing, astrocytes were recovered using 0.05% trypsin/EDTA and the cells were suspended again using a differentiation medium (a DMEM/F12 medium (Gibco) containing N2 additive (N2 Plus Supplement; R&D Systems) and 1% fetal bovine serum (manufactured by Dainippon Pharmaceutical). That was sown on a chamber slide and, on the next day, the culturing solution was exchanged to a differentiated medium (a DMEM/F12 medium comprising N2 additive, antibiotic and 1% fetal bovine serum) containing a test compound. After differentiating for seven days, fixation was conducted using 4% paraformaldehyde and the following immunostaining was conducted. With regard to nerve cells prepared by differentiation of astrocytes derived from cerebral cortex of rats, their differentiation stage was confirmed by means of immunostaining. Incidentally, anti-βIII-tubulin antibody and anti-doublecortin antibody were used for confirmation of young nerve cells; anti-MAP2 antibody, anti-NeuN antibody and anti-NSE antibody were used for confirmation of mature nerve cells; and anti-GABA antibody was used for confirmation of functional nerve cells.

The test system of another data set is sciatic nerve. The following applies: mature rat, axon of sciatic nerve cut; Brain Research 975, 229-236 (2003); cited from earlier work.
For data set [2], the system named is four-vein ligated (4VO) rat model. Description: 4VO rat model: histological observation (Nissl-stained specimen), hippocampus CA1 nerve cell numbers. It is filed as in vivo, rat of Wistar strain. The following applies: 4VO rats, 1 mg/kg oral. The method, then:
(§1) A four-vein ligated (4VO) rat model was prepared by a partially modified method by Prusinery, et al. (J. Cereb. Blood Flow Metab., 16, 973-980 […]). Thus, vertebral arteries on both sides of male rat of Wistar strain were permanently obstructed and, on the next day, whole carotid artery was exposed and was temporally obstructed for 10 minutes using a clip. Rats where no response was noted immediately after obstruction of whole carotid arteries on both sides and forward-facing response disappeared were used for the experiment.
A four-vein ligated (4VO) rat model was prepared according to a method mentioned in Example 1-A-1 and subjected to the following test. […]
With regard to the specimens for histopathological test, three kinds of specimens, i.e. (1) Nissl-stained specimen (a site of 5.7 mm from interaural line), (2) specimen stained with hematoxylin-eosin and (3) unstained specimen (thickness: 10 μm) were prepared for brain tissue sample from one animal. Among them, with regard to the Nissl-stained specimen, right and left hippocampus CA1 nerve cell layer lengths and nerve cell numbers were measured by using Image Analyzer (MCID Elite 7.0 Rev.1.0) and numbers per unit length (mm) were calculated to conduct a histological evaluation.

The subject of data set [3] is nerve stem cells derived from striatum of a rat. Description: differentiation test of stem cells derived from fetal brain of rats. The following applies: 30 μmol/L. In kind it is cell-based, rat of Wistar strain. The method, then: Fetus was taken out from a pregnant rat of Wistar strain and striatum was excised from brain of the fetus. Cells were dispersed by means of pipetting and incubated for six to seven days in a growth medium (a DMEM/F12 medium (manufactured by Gibco) containing N2 additive (N2 Plus Supplement; R&D Systems), antibiotics, basic fibroblast growth factor (20 ng/mL bFGF; manufactured by R&D Systems) and epithelial cell growth factor (20 ng/mL EGF; manufactured by R&D Systems). The resulting neurospheres were recovered, cells were dispersed by means of pipetting and culturing was conducted for six to seven days more using a growth medium. Neurospheres which were produced again were recovered and, after cells were dispersed, they were cultured on a chamber slide subjected to a poly-L-ornithine coating. After incubating for 24 hours, exchange to a differentiated medium comprising a test compound (a DMEM/F12 medium comprising N2 additive, antibiotic and 1% fetal bovine serum) was conducted. After differentiating for seven days, fixation was conducted with 4% paraformaldehyde and a immunostaining was conducted using a mouse anti-βIII-tubulin antibody (second antibody: FITC-labeled anti-mouse IgG antibody) which is to be an index for differentiation from nerve stem cells to nerve cells).
For example, when 30 μmol/L of (2R)-2-propyloctanoic acid was used, the cell numbers in the no compound-added group were 8±1.3 (in eight visual fields) while those in the group to which the compound was added were 31±4.6 (in eight visual fields).
With regard to the above nerve cells prepared by differentiation of nerve stem cells derived from striatum of rats, their differentiation stage was confirmed by means of immunostaining. Incidentally, for the confirmation of mature nerve cells, anti-MAP2 antibody was used while, for the confirmation of functional nerve cells, anti-GABA antibody was used.

Data set [4] relates to four-vein ligated (4VO) rat model. Description: 4VO rat model: BrdU and NeuN double immunostaining, hippocampus CA1 region. The following applies: 4VO rats, 10 mg/kg oral once daily for 40 days from 8th day after 4VO, n=13. It is filed as in vivo, rat of Wistar strain. The method, then: as §1
Evaluation of nerve cell regeneration was conducted by preparing brain tissue sample by Nissl staining and counting nerve cell numbers in right and left hippocampus CA1 regions.
Confirmation of the fact that […] nerve cells increased in Example 1-A-2-1 were regenerated nerve cells was conducted by preparing a brain tissue sample immunostained with BrdU and NeuN and counting nerve cell numbers which were positive to double staining in right and left hippocampus CA1 region. […] Nerve cell numbers which were positive to double staining were calculated as number per unit length (mm) using nerve cell layer length of the hippocampus CA1 region and nerve cell numbers which were positive to double staining.

The test system is the same in data set [5]. Description: 4VO rat model: water maze learning test. The following applies: 4VO rats; for successful times compared with the control group (χ2 test): fourth session, p<0.05. It is filed as in vivo, rat of Wistar strain. The protocol: as §1
A four-vein ligated (4VO) rat model was prepared according to a method mentioned in Example 1-A-1 and subjected to the following test.
In the water maze learning test, a black circular pool (manufactured by Neuroscience) of 150 cm diameter and 50 cm height was used. The pool was filled with tap water of about 23° C. to a height of about 30 cm (platform surface was about 1 cm beneath the water surface). The platform (made of colorless and transparent acrylate; circular shape having 10 cm diameter) which was to be a goal was placed in a distance of about 35 cm from the inner wall of the pool. During the test period, positions of things which were hints for recognition of space such as racks, illumination instruments and persons who conducted the experiments were made constant and illumination level was made constant as well.
Rats on the third day after completion of repetitive administrations were allowed to stand at a starting position and the time until they climbed up to the platform (escape latency (seconds)) was measured. Maximum swimming time for climbing up to the platform was made 90 seconds and, when a rat climbed up to the plant form, it was allowed to stand there for about 30 seconds and then returned to a cage. When a rat was unable to climb up to the platform within a measuring time of 90 seconds, the rat was taken out from water, transferred onto the platform, allowed to stand there for about 30 seconds and returned to the cage. Incidentally, the escape latency at that time was counted as 90 seconds. Interval between trials was made about 30 minutes, four trials were conducted a day and they were defined as one session. Such a session was conducted for continued four days and (1) escape latency and (2) successful times (times of being able to reach the platform during four trials) were evaluated.

For data set [6] the following is noted: dog, in vivo, 100 mg/kg. The text has this: Toxicity of the compound of the present invention is sufficiently low and has been confirmed to be sufficiently safe for using as a medicament.

With `CCCC(CCC)C(=O)O` [2-propylpentanoic acid], the “positive cell numbers per visual field stained by an anti-βIII-tubulin antibody” value in data set [1] (300 μmol/L) was 174.8±7.8. Further, in the data set with sciatic nerve, the “axon elongation and recovery of kinetic function” value was “the axon is elongated and kinetic function is recovered”.

`CCCCCC[C@@H](CCC)C(=O)O` [(2R)-2-propyloctanoic acid]: the “Nerve cell density, hippocampus CA1 region” value in data set [2] amounted to 45.0 ± 5.6 cells/mm. For the same compound, in data set [3] (differentiated seven days, eight visual fields, 100 magnifications, no compound-added group 8±1.3), the “βIII-tubulin-positive (Tuj1+) cell numbers per visual field” value is given as 31±4.6. In addition, the “positive cell numbers per visual field stained using an anti-GABA antibody” value in data set [3] (no compound-added group 19±2.7) came out at 101±9.5. In addition, in data set [3] (no compound-added group 34±0.9), the “positive cell numbers per visual field stained using an anti-MAP2 antibody” value is on record as 50±7.4. Also, the “cells positive to double staining (anti-BrdU and anti-NeuN) per mm, hippocampus CA1 region” value in data set [4] was found to be 5.7±1.2 cells/mm. The Escape latency turned out to be 68.2 ± 3.5 s in data set [5] (1 mg/kg oral, session 1); 61.8 ± 4.4 s in data set [5] (1 mg/kg oral, session 2); 52.5 ± 6.9 s in data set [5] (1 mg/kg oral, session 3); 46.9 ± 7.6 s in data set [5] (1 mg/kg oral, session 4); 63.2 ± 3.8 s in data set [5] (3 mg/kg oral, session 1); 48.7 ± 5.5 s in data set [5] (3 mg/kg oral, session 2). The Escape latency was determined as 42.8 ± 6.4 s in data set [5] (3 mg/kg oral, session 3); 66.8 ± 3.7 s in data set [5] (10 mg/kg oral, session 1); 44.5 ± 4.5 s in data set [5] (10 mg/kg oral, session 2); 41.4 ± 5.2 s in data set [5] (10 mg/kg oral, session 3). Besides, the “successful times compared with the control group (χ2 test)” value in data set [5] (3 mg/kg oral) and in data set [5] (10 mg/kg oral) was “significant difference” in each case. Moreover, the “positive cell numbers per visual field stained by an anti-βIII-tubulin antibody” value in data set [1] (30 μmol/L) came to 177±11.8; in data set [1] (100 μmol/L), 230±11.0. For the same compound, the “positive cell numbers stained by an anti-GABA antibody” value in data set [1] (30 μmol/L, no compound-added group 20±1.0) turned out to be 60±8.8. In data set [1] (30 μmol/L, no compound-added group 50±7.4), the “positive cell numbers stained by an anti-MAP2 antibody” value was determined as 104±10.3. Further, the “positive cell numbers stained by an anti-doublecortin antibody” value in data set [1] (30 μmol/L, no compound-added group 55±5.7) came out at 168±16.6. Moreover, the “positive cell numbers stained by an anti-NeuN antibody” value in data set [1] (30 μmol/L, no compound-added group 106) turned out to be 199. Also, the “positive cell numbers stained by an anti-NSE antibody” value in data set [1] (30 μmol/L, no compound-added group 108) came to 166. For the same compound, in data set [6], the dead cases entry was “no dead case was noted”.
